The assay concerns the target human histamine H4 receptor (Homo sapiens, UniProt Q9H3N8). The experiment in a line: biochemical.
Sequence of human histamine H4 receptor (Q9H3N8 whole entry): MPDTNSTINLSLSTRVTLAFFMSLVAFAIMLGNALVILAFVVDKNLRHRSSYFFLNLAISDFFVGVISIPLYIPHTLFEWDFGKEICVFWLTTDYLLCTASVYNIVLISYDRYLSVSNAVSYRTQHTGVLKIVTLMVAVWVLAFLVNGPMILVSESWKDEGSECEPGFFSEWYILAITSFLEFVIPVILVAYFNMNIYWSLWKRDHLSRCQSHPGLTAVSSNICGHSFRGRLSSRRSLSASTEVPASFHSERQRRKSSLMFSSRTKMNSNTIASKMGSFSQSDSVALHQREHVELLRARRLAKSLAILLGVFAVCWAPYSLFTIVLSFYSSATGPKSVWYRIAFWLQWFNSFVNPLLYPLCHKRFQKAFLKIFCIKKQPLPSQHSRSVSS
Consider `CN1CCN(C(=O)c2cc3c(Br)cccc3[nH]2)CC1` [(4-Bromo-1H-indol-2-yl)-(4-methyl-piperazin-1-yl)-methanone], for which the affinity, expressed as Ki, was 40 nM.

For `Cc1cc(C)c2[nH]c(C(=O)N3CCN(C)CC3)cc2c1` [(5,7-Dimethyl-1H-indol-2-yl)-(4-methyl-piperazin-1-yl)-methanone], the affinity, expressed as Ki, was 30 nM.

Regarding `CN1CCN(C(=O)c2cc3ccc(O)cc3[nH]2)CC1` [(6-Hydroxy-1H-indol-2-yl)-(4-methyl-piperazin-1-yl)-methanone], affinity was put at a Ki of 32.5 nM.

As to `C[C@@H]1CN(C(=O)c2cc3cc(Cl)ccc3[nH]2)CCN1` [(5-Chloro-1H-indol-2-yl)-((R)-3-methyl-piperazin-1-yl)-methanone], the Ki (in general, the equilibrium dissociation constant of an inhibitor or competing ligand from its target) came to 34 nM.

In turn, `CN1CCN(C(=S)c2cc3ccccc3[nH]2)CC1` [(1H-Indol-2-yl)-(4-methyl-piperazin-1-yl)-methanethione] displayed a Ki of 132 nM.

In turn, `CC1CN(C(=O)c2cc3cc(Cl)ccc3[nH]2)CCN1C` (stereo not shown) [(5-Chloro-1H-indol-2-yl)-(3,4-dimethyl-piperazin-1-yl)-methanone] gave an inhibition constant Ki of 27 nM. Compared with the last compound, the Ki is about 4.9-fold lower.

In turn, `C[C@H]1CN(C(=O)c2cc3cc(Cl)ccc3[nH]2)CCN1` [(5-Chloro-1H-indol-2-yl)-((S)-3-methyl-piperazin-1-yl)-methanone] registered an inhibition constant Ki of 36 nM.

Compound `CC1CN(C(=O)c2cc3cc(Cl)ccc3[nH]2)CCN1` (stereo not shown) [(5-Chloro-1H-indol-2-yl)-(3-methyl-piperazin-1-yl)-methanone] yielded a Ki of 41 nM. The Ki values of the last two compounds are within 1.5-fold of each other.

`CN1CCN(C(=O)c2cc3cc(Cl)cc(Cl)c3[nH]2)CC1` [(5,7-Dichloro-1H-indol-2-yl)-(4-methyl-piperazin-1-yl)-methanone] returned a Ki of 10 nM. This Ki lies about 4.1-fold lower than the previous one.

Consider `CN1CCN(C(=O)c2cc3cccc(O)c3[nH]2)CC1` [(7-Hydroxy-1H-indol-2-yl)-(4-methyl-piperazin-1-yl)-methanone], for which the inhibition constant (Ki) turned out to be 47 nM.

On to `Cc1ccc2[nH]c(C(=O)N3CCN(C)CC3)cc2c1` [(5-Methyl-1H-indol-2-yl)-(4-methyl-piperazin-1-yl)-methanone], for which the Ki worked out at 11 nM.

In turn, `CN1CCN(C(=O)c2cc3ccc(Br)cc3[nH]2)CC1` [(6-Bromo-1H-indol-2-yl)-(4-methyl-piperazin-1-yl)-methanone] yielded a Ki of 188 nM. This Ki lies about 17-fold higher than the previous one.

The compound `CN1CCN(C(=O)c2cc3cccc(Br)c3[nH]2)CC1` [(7-Bromo-1H-indol-2-yl)-(4-methyl-piperazin-1-yl)-methanone] had an inhibition constant Ki of 55 nM.

Consider `Cc1cccc2cc(C(=O)N3CCN(C)CC3)[nH]c12` [(7-Methyl-1H-indol-2-yl)-(4-methyl-piperazin-1-yl)-methanone], for which the Ki worked out at 6.6 nM.

Consider `CN1CCN(C(=O)c2cc3cc(F)ccc3[nH]2)CC1` [(5-Fluoro-1H-indol-2-yl)-(4-methyl-piperazin-1-yl)-methanone], for which the affinity corresponds to a Ki of 18 nM.

In turn, `CN1CCN(C(=O)c2cc3cc(O)ccc3[nH]2)CC1` [(5-Hydroxy-1H-indol-2-yl)-(4-methyl-piperazin-1-yl)-methanone] came in with a Ki of 19 nM.

As for `Nc1cccc2cc(C(=O)N3CCNCC3)[nH]c12` [(7-Amino-1H-indol-2-yl)-piperazin-1-yl-methanone], the Ki stood at 43 nM. This Ki is about 2.3-fold higher than that of the compound before.

`CN1CCN(C(=O)c2cc3ccc(Cl)cc3[nH]2)CC1` [(6-Chloro-1H-indol-2-yl)-(4-methyl-piperazin-1-yl)-methanone] displayed an inhibition constant Ki of 124 nM. This Ki lies about 2.9-fold higher than the previous one.

With `CN1CCN(C(=O)c2cc3c(Cl)c(Cl)ccc3[nH]2)CC1` [(4,5-Dichloro-1H-indol-2-yl)-(4-methyl-piperazin-1-yl)-methanone], the Ki turned out to be 11 nM.

Compound `O=C(c1cc2cc(Cl)ccc2[nH]1)N1CCN(CCO)CC1` [(5-Chloro-1H-indol-2-yl)-[4-(2-hydroxy-ethyl)-piperazin-1-yl]-methanone] gave an inhibition constant Ki of 25 nM.

For `CC1CN(C(=O)c2cc3ccccc3[nH]2)CCN1` (stereo not shown) [(1H-Indol-2-yl)-(3-methyl-piperazin-1-yl)-methanone], the inhibitory constant (Ki) came out at 100 nM.

As to `CN1CCN(C(=O)c2cc3cc(Br)ccc3o2)CC1` [(5-Bromo-benzofuran-2-yl)-(4-methyl-piperazin-1-yl)-methanone], the affinity corresponds to a Ki of 95 nM.

The record behind these values is US20040127395A1 (priority 2002, published 2004).
